Reference: the NIST ThermoML archive (doi:10.1016/j.fluid.2007.09.002)
± gives the expanded uncertainty stated by the source.

Legend:
[1] = Liquid, Closed cell (Static) method
[2] = excess molar enthalpy (molar enthalpy of mixing); xn = mol fraction of the nth substance listed; settings: 298.15 K, 101.3 kPa, Liquid, Flow calorimetry

SMILES | vapor or sublimation pressure ([1]; 263.15 K) | vapor or sublimation pressure ([1]; 273.15 K) | vapor or sublimation pressure ([1]; 283.15 K) | vapor or sublimation pressure ([1]; 293.15 K) | vapor or sublimation pressure ([1]; 298.15 K) | vapor or sublimation pressure ([1]; 303.15 K) | vapor or sublimation pressure ([1]; 313.15 K) | vapor or sublimation pressure ([1]; 323.15 K) | vapor or sublimation pressure ([1]; 333.15 K) | vapor or sublimation pressure ([1]; 343.15 K) | other results
CCC#CCC [3-hexyne] | 1.613 ± 0.065 kPa | 3.001 ± 0.12 kPa | 5.293 ± 0.21 kPa | 8.909 ± 0.36 kPa | 11.38 ± 0.46 kPa | 14.39 ± 0.58 kPa | 22.4 ± 0.9 kPa | 33.77 ± 1.4 kPa | 49.44 ± 2 kPa | 70.52 ± 2.8 kPa | –
CCC#CCC [3-hexyne] + CCCCOCCCC | – | – | – | – | – | – | – | – | – | – | excess molar enthalpy ([2]; x1 = 0.1599): 0.00956 ± 0.00239 kcal/mol; excess molar enthalpy ([2]; x1 = 0.2756): 0.0143 ± 0.00239 kcal/mol; excess molar enthalpy ([2]; x1 = 0.3989): 0.0174 ± 0.00239 kcal/mol; excess molar enthalpy ([2]; x1 = 0.496): 0.0184 ± 0.00239 kcal/mol; excess molar enthalpy ([2]; x1 = 0.5781): 0.0182 ± 0.00239 kcal/mol; excess molar enthalpy ([2]; x1 = 0.6579): 0.0163 ± 0.00239 kcal/mol; excess molar enthalpy ([2]; x1 = 0.7475): 0.0136 ± 0.00239 kcal/mol; excess molar enthalpy ([2]; x1 = 0.8783): 0.00837 ± 0.00239 kcal/mol
CC#CCCC [2-hexyne] | 1.372 ± 0.056 kPa | 2.56 ± 0.1 kPa | 4.532 ± 0.18 kPa | 7.66 ± 0.31 kPa | 9.804 ± 0.39 kPa | 12.43 ± 0.5 kPa | 19.45 ± 0.78 kPa | 29.46 ± 1.2 kPa | 43.35 ± 1.7 kPa | 62.15 ± 2.5 kPa | –
CC#CCCC [2-hexyne] + CCCCOC | – | – | – | – | – | – | – | – | – | – | excess molar enthalpy ([2]; x1 = 0.1468): -0.0143 ± 0.00239 kcal/mol; excess molar enthalpy ([2]; x1 = 0.3058): -0.0287 ± 0.00239 kcal/mol; excess molar enthalpy ([2]; x1 = 0.4949): -0.039 ± 0.00239 kcal/mol; excess molar enthalpy ([2]; x1 = 0.637): -0.0382 ± 0.00239 kcal/mol; excess molar enthalpy ([2]; x1 = 0.7489): -0.0335 ± 0.00239 kcal/mol; excess molar enthalpy ([2]; x1 = 0.8444): -0.0191 ± 0.00239 kcal/mol
CCCCOC [butyl methyl ether] | 3.054 ± 0.062 kPa | 5.436 ± 0.11 kPa | 9.207 ± 0.19 kPa | 14.93 ± 0.3 kPa | 18.73 ± 0.38 kPa | 23.3 ± 0.47 kPa | 35.15 ± 0.71 kPa | 51.45 ± 1 kPa | 73.31 ± 1.5 kPa | 101.96 ± 2 kPa | –
